In PubChem BioAssay (NCI):
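Cells were grown in 96-well plates and exposed to each compound for 48 hours at five concentrations; endpoints were interpolated linearly between bracketing concentrations, or set to the highest concentration if not reached. TGI denotes the concentration required for complete inhibition of growth.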

What was measured:
Test in all cases: growth of human tumour cells (NCI), 48 h
MDA-N = test system: MDA-N
CAKI-1 renal = test system: CAKI-1 renal
CCRF-CEM leukemia = test system: CCRF-CEM leukemia
PC-3 prostate = test system: PC-3 prostate
SF-295 CNS = test system: SF-295 CNS
MOLT-4 leukemia = test system: MOLT-4 leukemia
SK-MEL-5 melanoma = test system: SK-MEL-5 melanoma
HL-60(TB) leukemia = test system: HL-60(TB) leukemia
DU-145 prostate = test system: DU-145 prostate
EKVX NSCLC = test system: EKVX NSCLC
HOP-92 NSCLC = test system: HOP-92 NSCLC
COLO 205 colon = test system: COLO 205 colon
OVCAR-4 ovarian = test system: OVCAR-4 ovarian
HCT-116 colon = test system: HCT-116 colon
SF-268 CNS = test system: SF-268 CNS
SNB-75 CNS = test system: SNB-75 CNS
T-47D breast = test system: T-47D breast
NCI-H460 lung = test system: NCI-H460 lung
SK-MEL-2 melanoma = test system: SK-MEL-2 melanoma
OVCAR-3 ovarian = test system: OVCAR-3 ovarian
NCI-H226 lung = test system: NCI-H226 lung
MDA-MB-231 breast = test system: MDA-MB-231 breast
A549 NSCLC = test system: A549 NSCLC
HOP-62 NSCLC = test system: HOP-62 NSCLC
ACHN renal = test system: ACHN renal
SK-OV-3 ovarian = test system: SK-OV-3 ovarian
RXF 393 renal = test system: RXF 393 renal
UACC-62 melanoma = test system: UACC-62 melanoma
HCC-2998 colon = test system: HCC-2998 colon
SK-MEL-28 melanoma = test system: SK-MEL-28 melanoma
HCT-15 colon = test system: HCT-15 colon
SR leukemia = test system: SR leukemia
NCI-H522 lung = test system: NCI-H522 lung
NCI-H23 lung = test system: NCI-H23 lung
SNB-19 CNS = test system: SNB-19 CNS
HS 578T breast = test system: HS 578T breast
OVCAR-8 ovarian = test system: OVCAR-8 ovarian
786-0 renal = test system: 786-0 renal
IGROV1 ovarian = test system: IGROV1 ovarian
MCF7 breast = test system: MCF7 breast
HT29 colon = test system: HT29 colon
M14 melanoma = test system: M14 melanoma
MALME-3M melanoma = test system: MALME-3M melanoma
UACC-257 melanoma = test system: UACC-257 melanoma
A498 renal = test system: A498 renal
KM12 colon = test system: KM12 colon
SN12C renal = test system: SN12C renal
TK-10 renal = test system: TK-10 renal
LOX IMVI melanoma = test system: LOX IMVI melanoma
SW-620 colon = test system: SW-620 colon
SF-539 CNS = test system: SF-539 CNS
NCI/ADR-RES ovarian = test system: NCI/ADR-RES ovarian
OVCAR-5 ovarian = test system: OVCAR-5 ovarian
U251 CNS = test system: U251 CNS
RPMI-8226 leukemia = test system: RPMI-8226 leukemia
K-562 leukemia = test system: K-562 leukemia
UO-31 renal = test system: UO-31 renal

SMILES: CC1=C(C#N)C2C(=C(C)N1)C(N)=Nc1ccccc12 (configuration not stated)
- TGI (MDA-N): > 100 µM
- TGI (CAKI-1 renal): > 100 µM
- TGI (CCRF-CEM leukemia): > 100 µM
- TGI (PC-3 prostate): 70.8 µM
- TGI (SF-295 CNS): > 100 µM
- TGI (MOLT-4 leukemia): > 100 µM
- TGI (SK-MEL-5 melanoma): > 100 µM
- TGI (HL-60(TB) leukemia): 81.6 µM
- TGI (DU-145 prostate): > 100 µM
- TGI (EKVX NSCLC): 89.4 µM
- TGI (HOP-92 NSCLC): 62.2 µM
- TGI (COLO 205 colon): > 100 µM
- TGI (OVCAR-4 ovarian): > 100 µM
- TGI (HCT-116 colon): > 100 µM
- TGI (SF-268 CNS): > 100 µM
- TGI (SNB-75 CNS): 44.1 µM
- TGI (T-47D breast): > 100 µM
- TGI (NCI-H460 lung): > 100 µM
- TGI (SK-MEL-2 melanoma): > 100 µM
- TGI (OVCAR-3 ovarian): > 100 µM
- TGI (NCI-H226 lung): 93.8 µM
- TGI (MDA-MB-231 breast): > 100 µM
- TGI (A549 NSCLC): > 100 µM
- TGI (HOP-62 NSCLC): > 100 µM
- TGI (ACHN renal): > 100 µM
- TGI (SK-OV-3 ovarian): > 100 µM
- TGI (RXF 393 renal): > 100 µM
- TGI (UACC-62 melanoma): > 100 µM
- TGI (HCC-2998 colon): > 100 µM
- TGI (SK-MEL-28 melanoma): > 100 µM
- TGI (HCT-15 colon): > 100 µM
- TGI (SR leukemia): > 100 µM
- TGI (NCI-H522 lung): > 100 µM
- TGI (NCI-H23 lung): > 100 µM
- TGI (SNB-19 CNS): > 100 µM
- TGI (HS 578T breast): 74.7 µM
- TGI (OVCAR-8 ovarian): > 100 µM
- TGI (786-0 renal): > 100 µM
- TGI (IGROV1 ovarian): 95.6 µM
- TGI (MCF7 breast): > 100 µM
- TGI (HT29 colon): > 100 µM
- TGI (M14 melanoma): > 100 µM
- TGI (MALME-3M melanoma): > 100 µM
- TGI (UACC-257 melanoma): > 100 µM
- TGI (A498 renal): 97.8 µM
- TGI (KM12 colon): > 100 µM
- TGI (SN12C renal): > 100 µM
- TGI (TK-10 renal): > 100 µM
- TGI (LOX IMVI melanoma): > 100 µM
- TGI (SW-620 colon): > 100 µM
- TGI (SF-539 CNS): > 100 µM
- TGI (NCI/ADR-RES ovarian): > 100 µM
- TGI (OVCAR-5 ovarian): > 100 µM

SMILES: O=[N+]([O-])c1ccc2nc3n(c2c1)C(c1c(F)cccc1F)SC3 (configuration not stated)
- TGI (MDA-N): > 100 µM
- TGI (CCRF-CEM leukemia): > 100 µM
- TGI (PC-3 prostate): > 100 µM
- TGI (SF-295 CNS): > 100 µM
- TGI (MOLT-4 leukemia): > 100 µM
- TGI (SK-MEL-5 melanoma): > 10 µM
- TGI (DU-145 prostate): > 100 µM
- TGI (EKVX NSCLC): > 100 µM
- TGI (U251 CNS): > 100 µM
- TGI (RPMI-8226 leukemia): > 10 µM
- TGI (HCT-116 colon): > 100 µM
- TGI (T-47D breast): > 10 µM
- TGI (NCI-H460 lung): > 100 µM
- TGI (OVCAR-3 ovarian): > 100 µM
- TGI (NCI-H226 lung): > 100 µM
- TGI (MDA-MB-231 breast): > 100 µM
- TGI (A549 NSCLC): > 10 µM
- TGI (HOP-62 NSCLC): > 100 µM
- TGI (ACHN renal): > 100 µM
- TGI (SK-OV-3 ovarian): > 100 µM
- TGI (SK-MEL-28 melanoma): > 100 µM
- TGI (SR leukemia): > 100 µM
- TGI (NCI-H23 lung): > 100 µM
- TGI (SNB-19 CNS): > 100 µM
- TGI (HS 578T breast): > 100 µM
- TGI (K-562 leukemia): > 10 µM
- TGI (OVCAR-8 ovarian): > 10 µM
- TGI (786-0 renal): > 100 µM
- TGI (IGROV1 ovarian): > 100 µM
- TGI (MCF7 breast): > 100 µM
- TGI (HT29 colon): > 100 µM
- TGI (MALME-3M melanoma): > 100 µM
- TGI (UACC-257 melanoma): > 100 µM
- TGI (A498 renal): > 100 µM
- TGI (KM12 colon): > 100 µM
- TGI (SN12C renal): > 100 µM
- TGI (TK-10 renal): > 100 µM
- TGI (LOX IMVI melanoma): > 100 µM
- TGI (SW-620 colon): > 100 µM
- TGI (NCI/ADR-RES ovarian): > 100 µM
- TGI (OVCAR-5 ovarian): > 100 µM

SMILES: CCP(=S)(CC)CCl
- TGI (MDA-N): > 100 µM
- TGI (CAKI-1 renal): > 100 µM
- TGI (CCRF-CEM leukemia): > 100 µM
- TGI (PC-3 prostate): > 100 µM
- TGI (SF-295 CNS): > 100 µM
- TGI (SK-MEL-5 melanoma): > 100 µM
- TGI (HL-60(TB) leukemia): > 100 µM
- TGI (DU-145 prostate): > 100 µM
- TGI (HOP-92 NSCLC): > 100 µM
- TGI (U251 CNS): > 100 µM
- TGI (COLO 205 colon): > 100 µM
- TGI (RPMI-8226 leukemia): > 100 µM
- TGI (OVCAR-4 ovarian): > 100 µM
- TGI (HCT-116 colon): > 100 µM
- TGI (SNB-75 CNS): > 100 µM
- TGI (T-47D breast): > 100 µM
- TGI (NCI-H460 lung): > 100 µM
- TGI (SK-MEL-2 melanoma): > 100 µM
- TGI (OVCAR-3 ovarian): > 100 µM
- TGI (NCI-H226 lung): > 100 µM
- TGI (MDA-MB-231 breast): > 100 µM
- TGI (A549 NSCLC): > 100 µM
- TGI (HOP-62 NSCLC): > 100 µM
- TGI (ACHN renal): > 100 µM
- TGI (SK-OV-3 ovarian): > 100 µM
- TGI (UO-31 renal): > 100 µM
- TGI (HCC-2998 colon): > 100 µM
- TGI (SK-MEL-28 melanoma): > 100 µM
- TGI (HCT-15 colon): > 100 µM
- TGI (SR leukemia): > 100 µM
- TGI (NCI-H522 lung): > 100 µM
- TGI (NCI-H23 lung): > 100 µM
- TGI (SNB-19 CNS): > 100 µM
- TGI (HS 578T breast): > 100 µM
- TGI (K-562 leukemia): > 100 µM
- TGI (OVCAR-8 ovarian): > 100 µM
- TGI (IGROV1 ovarian): > 100 µM
- TGI (MCF7 breast): > 100 µM
- TGI (HT29 colon): > 100 µM
- TGI (M14 melanoma): > 100 µM
- TGI (UACC-257 melanoma): > 100 µM
- TGI (SN12C renal): > 100 µM
- TGI (TK-10 renal): > 100 µM
- TGI (LOX IMVI melanoma): > 100 µM
- TGI (SW-620 colon): > 100 µM
- TGI (NCI/ADR-RES ovarian): > 100 µM
- TGI (OVCAR-5 ovarian): > 100 µM

SMILES: CC1CN=C(N(C)C(=O)Nc2ccc(Cl)cc2)S1 (configuration not stated)
- TGI (MDA-N): > 100 µM
- TGI (CAKI-1 renal): > 100 µM
- TGI (PC-3 prostate): > 100 µM
- TGI (SF-295 CNS): > 100 µM
- TGI (MOLT-4 leukemia): 44.1 µM
- TGI (SK-MEL-5 melanoma): 22 µM
- TGI (HL-60(TB) leukemia): > 100 µM
- TGI (DU-145 prostate): > 100 µM
- TGI (EKVX NSCLC): > 100 µM
- TGI (HOP-92 NSCLC): 68.8 µM
- TGI (U251 CNS): > 100 µM
- TGI (COLO 205 colon): 80.2 µM
- TGI (OVCAR-4 ovarian): > 100 µM
- TGI (HCT-116 colon): > 100 µM
- TGI (SF-268 CNS): > 100 µM
- TGI (SNB-75 CNS): > 100 µM
- TGI (T-47D breast): 65.6 µM
- TGI (NCI-H460 lung): > 100 µM
- TGI (SK-MEL-2 melanoma): 37.3 µM
- TGI (OVCAR-3 ovarian): > 100 µM
- TGI (MDA-MB-231 breast): > 100 µM
- TGI (A549 NSCLC): > 100 µM
- TGI (HOP-62 NSCLC): > 100 µM
- TGI (ACHN renal): 95.6 µM
- TGI (SK-OV-3 ovarian): > 100 µM
- TGI (UO-31 renal): 61 µM
- TGI (HCC-2998 colon): > 100 µM
- TGI (SK-MEL-28 melanoma): 41.8 µM
- TGI (HCT-15 colon): > 100 µM
- TGI (SR leukemia): 92.2 µM
- TGI (NCI-H23 lung): > 100 µM
- TGI (SNB-19 CNS): > 100 µM
- TGI (HS 578T breast): > 100 µM
- TGI (K-562 leukemia): > 100 µM
- TGI (OVCAR-8 ovarian): > 100 µM
- TGI (786-0 renal): > 100 µM
- TGI (IGROV1 ovarian): > 100 µM
- TGI (MCF7 breast): > 100 µM
- TGI (HT29 colon): > 100 µM
- TGI (M14 melanoma): > 100 µM
- TGI (MALME-3M melanoma): > 100 µM
- TGI (UACC-257 melanoma): 35.5 µM
- TGI (A498 renal): > 100 µM
- TGI (KM12 colon): > 100 µM
- TGI (SN12C renal): > 100 µM
- TGI (TK-10 renal): > 100 µM
- TGI (LOX IMVI melanoma): > 100 µM
- TGI (SW-620 colon): > 100 µM
- TGI (SF-539 CNS): 30.8 µM
- TGI (NCI/ADR-RES ovarian): 37.5 µM
- TGI (OVCAR-5 ovarian): 66.4 µM
